Values joined by “and” are separate entries in the source; they are usually repeats but may differ in a detail not shown here. Equal entries are not always repeated.
Columns and labels:
[1] = system: gastric acid secretion of the conscious male rat; assay: Inhibitory effect on gastric acid secretion of the conscious male rat at timed intervals after oral administration; format: in vivo; set-up: inhibition of gastric acid secretion: concentration or dose not given beside the values; settings: for % inhibition of gastric acid secretion: male rat; for inhibition of gastric acid secretion: after 5 hr of oral administration
[2] = Relative plasma concentration of OMEPRAZOLE in male rat after oral administration; settings: male rat;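 also: Sprague-Dawley rats fasted one day with water available, dosed orally with prodrug compounds, OMEPRAZOLE quantified by HPLC in plasma from serial blood draws, control given OMEPRAZOLE itself orally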
Description: Male adult rats of the Sprague-Dawley strain were used for determining the concentration of OMEPRAZOLE in the plasma. All rats were derived of food but not of water for one day. Examples of compounds of the invention (2 mg/kg of rat weight) were orally administrated to male rats (weighing 250 g to 270 g) and blood samples (0.3 ml) were taken at timed intervals. Blood samples were centrifuged and plasma was taken out. Plasma was extracted with 0.5 ml of dichloromethane. Dichloromethane layer was evaporated by nitrogen/air blowing. The residual materials were dissolved in 0.5 ml of 40% acetonitrile in 10 mM phosphate buffer (pH 7.4). Amounts of OMEPRAZOLE were determined by HPLC analysis. As a control, OMEPRAZOLE (4 mg/kg of rat weight) was orally administrated.

[3] = Chemical stability: hydrolysis half-life in buffer solution at various pH; format: physicochemical
Description: By way of concrete examples, the following tests and results are described. […] This is consistent with the knowledge that the compounds obtained by hydrolysis e. g. LANSOPRAZOLE, OMEPRAZOLE, PANTOPRAZOLE and RABEPRAZOLE are well known H,K-ATPase inhibitors. […] Another good example is 2-(2-carbamoylmethoxy-4-{2-[4-(3-methoxypropoxy)-3-methyl pyridin-2-yl methylsulfinyl]benzimidazole-1-sulfonyl}phenoxy)acetamide. The half life of this compound dependes on pH. […] Based on these measured characteristics the compound 2-(2-carbamoylmethoxy-4-{2-[4-(3-methoxypropoxy)-3-methyl pyridin-2-yl methylsulfinyl]benzimidazole-1-sulfonyl}phenoxy)acetamide is expected to be well absorbed, and slowly release the parent RABEPRAZOLE in the blood, resulting in long-lasting in vivo activity. This compound can also be administered intravenously in an aqueous solution at pH 7.4 which solution may include 2-hydroxypropyl-β-cyclodextrin.
The chemical stability of the compounds of the invention has been followed kinetically at low concentration at 37° C. in a buffer solution composed of 0.2M NaCl, 50 mM sodium phosphate, pH 7.4, 2% bovine albumin serum, 5-10% methanol.
The hydrolysis of 2-(2-carbamoylmethoxy-4-{2-[4-(3-methoxy-propoxy)-3-methyl-pyridin-2-ylmethanesulfinyl]-benzimidazole-1-sulfonyl}-phenoxy)-acetamide was measured at various pH.

[4] = between 5-8 hours after oral administration, 10 μmole/kg, histamine and carbachol stimulated
[5] = 20 min after oral administration, examples 2 mg/kg, OMEPRAZOLE 4 mg/kg
[6] = 40 min after oral administration, examples 2 mg/kg, OMEPRAZOLE 4 mg/kg
[7] = 60 min after oral administration, examples 2 mg/kg, OMEPRAZOLE 4 mg/kg
[8] = 80 min after oral administration, examples 2 mg/kg, OMEPRAZOLE 4 mg/kg
[9] = 100 min after oral administration, examples 2 mg/kg, OMEPRAZOLE 4 mg/kg
[10] = 120 min after oral administration, examples 2 mg/kg, OMEPRAZOLE 4 mg/kg
[11] = 140 min after oral administration, 2 mg/kg
[12] = 160 min after oral administration, 2 mg/kg
[13] = 180 min after oral administration, 2 mg/kg
[14] = 210 min after oral administration, 2 mg/kg
[15] = 240 min after oral administration, 2 mg/kg
[16] = 270 min after oral administration, 2 mg/kg
[17] = 300 min after oral administration, 2 mg/kg
[18] = 330 min after oral administration, 2 mg/kg
[19] = 360 min after oral administration, 2 mg/kg
[20] = between 4-7 hr after oral administration

1-(Pyridine-3-sulfonyl)-5-methoxy-2-[[(3,5-dimethyl-4-methoxy-2-pyridylmethyl]sulfinyl]-1H-benzimidazole and 1-(pyridine-3-sulfonyl-6-methoxy-2-[[(3,5-dimethyl-4-methoxy-2-pyridyl)methyl]sulfinyl]-1H-benzimidazole [Example 25]
% inhibition of gastric acid secretion [1, 4]: 61% and 61.3 ± 16.1%

1-[4-[3-(morpholin-4-yl) propoxy]benzenesulfonyl]-5-methoxy-2-[[(3,5-dimethyl-4-methoxy-2-pyridyl)methyl]sulfinyl]-1H-benzimidazole and 1-[4-[3-(morpholin-4-yl) propoxy]benzenesulfonyl]-6-methoxy-2-[[(3.5-dimethyl-4-methoxy-2-pyridyl)methyl]sulfinyl]-1H-benzimidazole [Example 37]
Relative concentration of OMEPRAZOLE released in the plasma [2, 5]: 1.67 arbitrary unit | Relative concentration of OMEPRAZOLE released in the plasma [2, 6]: 14.36 arbitrary unit | Relative concentration of OMEPRAZOLE released in the plasma [2, 7]: 3.5 arbitrary unit | Relative concentration of OMEPRAZOLE released in the plasma [2, 8]: 1.88 arbitrary unit | Relative concentration of OMEPRAZOLE released in the plasma [2, 9]: 1.88 arbitrary unit | Relative concentration of OMEPRAZOLE released in the plasma [2, 10]: 1.5 arbitrary unit | Relative concentration of OMEPRAZOLE released in the plasma [2, 11]: 1.5 arbitrary unit | Relative concentration of OMEPRAZOLE released in the plasma [2, 12]: 1 arbitrary unit | Relative concentration of OMEPRAZOLE released in the plasma [2, 13]: 1 arbitrary unit | Relative concentration of OMEPRAZOLE released in the plasma [2, 14]: 0.7 arbitrary unit | Relative concentration of OMEPRAZOLE released in the plasma [2, 15]: 0.7 arbitrary unit | Relative concentration of OMEPRAZOLE released in the plasma [2, 16]: 0.7 arbitrary unit | Relative concentration of OMEPRAZOLE released in the plasma [2, 17]: 0.4 arbitrary unit | Relative concentration of OMEPRAZOLE released in the plasma [2, 18]: 0.2 arbitrary unit | Relative concentration of OMEPRAZOLE released in the plasma [2, 19]: 0.1 arbitrary unit | Relative concentration of OMEPRAZOLE released in the plasma ([2]; 390 min after oral administration, 2 mg/kg): 0.1 arbitrary unit

2-{4-[(5-methoxy-2-{[(3.5-dimethyl-4-methoxy-2-pyridyl)methyl]sulfinyl}benzimidazol-1-yl)sulfonyl]phenoxy}acetamide and 2-{4-[(6-methoxy-2-{[(3,5-dimethyl-4-methoxy-2-pyridyl)methyl]sulfinyl}benzimidazol-1-yl)sulfonyl]phenoxy}acetamide [Example 53]
% inhibition of gastric acid secretion [1, 4]: 65.2 ± 11.3%

Cc1c(OCC(F)(F)F)ccnc1C[S+]([O-])c1nc2ccccc2n1S(=O)(=O)c1ccc(OCC(N)=O)cc1 (stereo not drawn) [Example 54]
% inhibition of gastric acid secretion [1, 20]: 46.9% | % inhibition of gastric acid secretion ([1]; between 4-7 hr after oral administration, listed as 2-(4-{[2-({[3-Methyl-4-(2,2,2-trifluoroethoxy)-2-pyridyl]methyl}sulfinyl) benzim)): 46.9%

COCCCOc1ccnc(C[S+]([O-])c2nc3ccccc3n2S(=O)(=O)c2ccc(OCC(N)=O)c(OCC(N)=O)c2)c1C (stereo not drawn) [Example 77, 2-(2-carbamoylmethoxy-4-{2-[4-(3-methoxypropoxy)-3-methylpyridin-2-ylmethylsulfinyl]benzimidazole-1-sulfonyl}phenoxy)acetamide]
inhibition of gastric acid secretion [1]: 56% | % inhibition of gastric acid secretion [1, 20]: 56% | half-life of hydrolysis ([3]; 2 mg/mL, pH 7.4): 3.73 h | half-life ([3]; bovine, pH 7.4, half-life of hydrolysis): ~22.2 h | half-life of hydrolysis ([3]; buffer, pH 2): 1.8 h | half-life ([3]; buffer, pH 2, half-life of hydrolysis): ~1.8 h | half-life of hydrolysis ([3]; buffer, pH 8): 10.7 h | half-life ([3]; buffer, pH 8, half-life of hydrolysis): ~10.7 h | half-life at 2 mg/mL ([3]; pH 7.4, half-life of hydrolysis): ~3.7 h

Cc1c(OCC(F)(F)F)ccnc1C[S+]([O-])c1nc2ccccc2n1S(=O)(=O)c1ccc(OCC(N)=O)c(OCC(N)=O)c1 (stereo not drawn) [Example 79, 2-(2-Carbamoylmethoxy-4-{2-[3-methyl-4-(2,2,2-trifluoro-ethoxy)-pyridin-2-ylmethanesulfinyl]-benzimidazole-1-sulfonyl}-phenoxy)-acetamide]
% inhibition of gastric acid secretion [1, 20]: 36.8%

Cc1c(OCC(F)(F)F)ccnc1C[S+]([O-])c1nc2ccccc2[nH]1 (stereo not drawn) [LANSOPRAZOLE, reference compound]
% inhibition of gastric acid secretion [1, 20]: 29% | % inhibition of gastric acid secretion ([1]; between 4-7 hr after oral administration, listed as LANOPRAZOLE): 29%

COCCCOc1ccnc(C[S+]([O-])c2nc3ccccc3[nH]2)c1C (stereo not drawn) [RABEPRAZOLE, reference compound]
inhibition of gastric acid secretion [1]: 32% | % inhibition of gastric acid secretion [1, 20]: 32%

N-(2-{4-[5-methoxy-2-(4-methoxy-3,5-dimethyl pyridin-2-yl methylsulfinyl)benzimidazole-1-sulfonyl]-phenoxy}ethyl)-N,N,N-trimethyl ammonium trifluoromethanesulfonate and N-(2-{4-[6-methoxy-2-(4-methoxy-3,5-dimethyl pyridin-2-yl methylsulfinyl)benzimidazole-1-sulfonyl]-phenoxy}ethyl)-N,N,N-trimethyl ammonium trifluoromethanesulfonate [Example 73]
% inhibition of gastric acid secretion [1, 4]: 21.8 ± 11.7%

N-(carbamoylmethyl)-2-{4-[(5-methoxy-2-{[(3,5-dimethyl-4-methoxy-2-pyridyl)methyl]sulfinyl}benzimidazol-1-yl)sulfonyl]phenoxy}acetamide and N-(carbamoylmethyl)-2-{4-[(6-methoxy-2-{[(3.5-dimethyl-4-methoxy-2-pyridyl)methyl]sulfinyl}benzimidazol-1-yl)sulfonyl]phenoxy}acetamide [Example 62]
% inhibition of gastric acid secretion ([1]; between 5.5-8.5 hours after oral administration, 10 μmole/kg, histamine and carbachol stimulated): 14.1 ± 7.5%

N-[4-[[5-methoxy-2-[[(3,5-dimethyl-4-methoxy-2-pyridyl)methyl]sulfinyl]benzimidazol-1-yl]sulfonyl]phenyl]urea and N-[4-[[6-methoxy-2-[[(3,5-dimethyl-4-methoxy-2-pyridyl)methyl]sulfinyl]benzimidazol-1-yl]sulfonyl]phenyl]urea [Example 29]
Relative concentration of OMEPRAZOLE released in the plasma [2, 5]: 4.5 arbitrary unit | Relative concentration of OMEPRAZOLE released in the plasma [2, 6]: 14 arbitrary unit | Relative concentration of OMEPRAZOLE released in the plasma [2, 7]: 8.5 arbitrary unit | Relative concentration of OMEPRAZOLE released in the plasma [2, 8]: 3.5 arbitrary unit | Relative concentration of OMEPRAZOLE released in the plasma [2, 9]: 2.5 arbitrary unit | Relative concentration of OMEPRAZOLE released in the plasma [2, 10]: 1.875 arbitrary unit | Relative concentration of OMEPRAZOLE released in the plasma [2, 11]: 0.625 arbitrary unit | Relative concentration of OMEPRAZOLE released in the plasma [2, 12]: 0.6 arbitrary unit | Relative concentration of OMEPRAZOLE released in the plasma [2, 13]: 0.6 arbitrary unit | Relative concentration of OMEPRAZOLE released in the plasma [2, 14]: 1.5 arbitrary unit | Relative concentration of OMEPRAZOLE released in the plasma [2, 15]: 0.5 arbitrary unit | Relative concentration of OMEPRAZOLE released in the plasma [2, 16]: 0.5 arbitrary unit | Relative concentration of OMEPRAZOLE released in the plasma [2, 17]: 0.2 arbitrary unit | Relative concentration of OMEPRAZOLE released in the plasma [2, 18]: 0.1 arbitrary unit | Relative concentration of OMEPRAZOLE released in the plasma [2, 19]: 0.05 arbitrary unit

Source: patent publication US6559167B1, “Prodrugs of proton pump inhibitors” (Regents of the University of California, priority 1998, dated 2003)
